The test concerns plasma LH. The experiment in a line: Intranasal kisspeptin-54, plasma LH in adult C57BL/6J male mice. Format: in vivo, mouse. As to conditions: intranasal, 25 min post administration, N = 2. Here is the method: Saline (placebo) or kisspeptin-54 were intranasally administered using a customised and unsharpened 2 mm long and 0.3 mm wide hypodermic needle (BD PrecisionGlide™; 30G; ref. 305106). Male mice were restrained and a single volume of 30 μL of the solution was delivered in one randomly chosen nostril with either 0.9% saline or different concentrations of kisspeptin-54 (1, 3, 12.8, 30, or 50 nM; equivalent to 0.001–0.05 nmol/kg). The protocol involved N = 5 mice per group, except concentrations 12.8 nM where N = 6 and 30 nM where N = 7. […] LH levels were assessed using a tail-tip serial blood sampling as previously reported.[64]^,[65] Briefly, samples containing 4 μL of whole blood were collected every 10 min over a 70-min-long period from each animal. The first sampling point was taken as baseline LH level (−5 min), and saline or kisspeptin-54 were administered at timepoint 0 min. Whole blood was collected into Eppendorf tubes pre-loaded with 50 μL of 0.1 M phosphate-buffered saline (PBS)-0.05% Tween, thoroughly mixed, and snap-frozen with dry ice and stored at −80 °C.
LH levels were measured using an established in-house and ultrasensitive mouse LH ELISA method as previously validated.[66] A primary coating antibody (bovine LHβ subunit, 518B7; L. Sibley; University of California, UC Davis, RRID AB_2756886) was used at a 1:1000 dilution in combination with a detection primary antibody (rabbit LH antiserum, AFP240580Rb, RRID AB_2665533; NIDDK- NHPP) used at 1:10,000 dilution, and a secondary horseradish peroxidase-conjugated antibody (goat anti-rabbit; Vector Laboratories, PI-1000, RRID AB_2336198) used at 1:10,000 dilution. The assay standard curve used a mouse LH-RP (AFP5306A, A. F. Parlow, National Hormone and Peptide Program; supplied by Golden West BioSolutions, California, USA; catalogue # TLIA1053.03). The assay sensitivity of this LH ELISA was 0.04 ng/mL, intra-assay coefficient of variation 4.1%, and inter-assay coefficient of variation 7.3%.
Statistical analyses were performed using GraphPad Prism (version 9.4.1). Data are presented as mean ± SEM. Normality of the data was determined using the Shapiro–Wilk test. The analysis considered increment in LH levels when average post-administration values were above significance (P < 0.05) compared to basal levels (−5 min) using repeated measures two-way ANOVA with Fishers least significant difference (LSD) test. Integrated LH response to kisspeptin-54 administration as indicated using the area under the curve (AUC) analysis when all peaks were above baseline values. The difference in AUC between groups was compared by one-way ANOVA with Fisher’s LSD test. In all cases, P < 0.05 was considered statistically significant.

As for “Dye-C-GTSLSPPPESSGSRQQPGLSAPHSRQIPAPQGAVLVQREKDLPNYNWNSFGLRF [kisspeptin-54-D2, Kisspeptin-54 labelled with a D2 fluorescent probe, developed by Cisbio Bioassays]”, the “Plasma LH response to the fluorescently tagged peptide” value was “robust LH increase”.

Values taken from publication PMC12018048, “Intranasal kisspeptin administration rapidly stimulates gonadotropin release in humans” (eBioMedicine, 2025).
